Earlier results on one molecule are cited in patent US9012464B2, “Salts and polymorphic forms of Afatinib” (Ratiopharm GmbH, priority 2010, dated 2015).

For the data set the following is noted: acid compound used for forming afatinib salts.

Each structure is given as a SMILES string.

Consider `O=S(=O)(O)c1ccccc1` [Benzenesulphonic acid], for which the pKa1 is recorded as 0.7.
